Measured values taken from article PMC7756656, “Discovery of Homobivalent Bitopic Ligands of the Cannabinoid CB2 Receptor” (Chemistry (Weinheim an Der Bergstrasse, Germany), 2020).

Columns and labels:
CB2R (hCB2R) [1] = molecular target: T1, CB2R (hCB2R) (Homo sapiens, UniProt P34972, A282M); assay: inhibition of forskolin-induced cAMP, HEK-293T cells; assay type: cell-based; conditions: read-out: Ala282^7.36Met / pEC50 (converted)
T1 construct: gene CNR2; expressed in HEK-293T cells

CB2R (hCB2R) [2] = molecular target: T2, CB2R (hCB2R) (Homo sapiens, UniProt P34972); assay: as above; assay type: cell-based; conditions: read-out: Wild type / pEC50 (converted)
T2 construct: gene CNR2; expressed in HEK-293T cells
T2 sequence (P34972 whole entry): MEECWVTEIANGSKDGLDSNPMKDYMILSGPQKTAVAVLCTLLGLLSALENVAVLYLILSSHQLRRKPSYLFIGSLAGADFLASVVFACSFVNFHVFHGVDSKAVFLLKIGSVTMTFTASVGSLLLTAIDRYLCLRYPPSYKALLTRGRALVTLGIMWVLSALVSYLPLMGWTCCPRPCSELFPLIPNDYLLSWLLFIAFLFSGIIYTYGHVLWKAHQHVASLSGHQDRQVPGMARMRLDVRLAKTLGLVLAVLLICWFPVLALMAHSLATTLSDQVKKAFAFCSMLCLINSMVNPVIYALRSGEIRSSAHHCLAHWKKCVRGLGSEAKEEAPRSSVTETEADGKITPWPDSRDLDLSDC

CB1R (hCB1R) = molecular target: T3, CB1R (hCB1R) (Homo sapiens, UniProt P21554); assay: [3H]CP-55, […] competition binding, HEK-293T membranes; conditions: read-out: CB1R Ki [μM]^[b]
T3 construct: gene CNR1; expressed in HEK-293T cells; membrane fractions
T3 sequence (P21554 whole entry): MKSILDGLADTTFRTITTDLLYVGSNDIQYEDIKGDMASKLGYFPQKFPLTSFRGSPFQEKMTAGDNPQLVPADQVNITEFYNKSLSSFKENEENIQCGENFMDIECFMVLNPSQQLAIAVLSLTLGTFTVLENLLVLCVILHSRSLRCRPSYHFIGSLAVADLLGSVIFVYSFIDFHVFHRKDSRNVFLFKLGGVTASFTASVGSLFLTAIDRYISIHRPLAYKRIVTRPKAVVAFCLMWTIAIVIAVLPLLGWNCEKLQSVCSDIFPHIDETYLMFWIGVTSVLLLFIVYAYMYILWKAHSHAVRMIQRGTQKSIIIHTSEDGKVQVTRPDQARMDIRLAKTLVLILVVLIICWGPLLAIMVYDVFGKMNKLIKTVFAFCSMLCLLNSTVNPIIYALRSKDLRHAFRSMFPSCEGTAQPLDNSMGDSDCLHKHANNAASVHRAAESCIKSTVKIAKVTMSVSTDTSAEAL

CB2R (hCB2R) [3] = molecular target: T2, CB2R (hCB2R); assay: as above; conditions: read-out: CB2R Ki [μM]^[b]
CB2R (hCB2R) [4] = molecular target: T4, CB2R (hCB2R) (Homo sapiens, UniProt P34972, V36M); assay: inhibition of forskolin-induced cAMP, HEK-293T cells; assay type: cell-based; conditions: read-out: Val36^1.35Met / pEC50 (converted)
T4 construct: gene CNR2; expressed in HEK-293T cells
T4 sequence (P34972 whole entry V36M): as the sequence (P34972 whole entry) above, with V36M counted along it

[5] = [3H]CP-55, […] competition binding, HEK-293T membranes; parameters: species or system Homo sapiens; conditions: read-out: CB1R Ki [μM]^[b]

T1 sequence (P34972 whole entry A282M): as the sequence (P34972 whole entry) above, with A282M counted along it

| SMILES | EC50 (CB2R (hCB2R) [1]) | EC50 (CB2R (hCB2R) [2]) | Ki (CB1R (hCB1R)) | Ki (CB2R (hCB2R) [3]) | EC50 (CB2R (hCB2R) [4]) | Ki [5] |
| --- | --- | --- | --- | --- | --- | --- |
| CCCCCCC(C)(C)c1cc(OCCCCCCCCCCCCCCOc2cc(C(C)(C)CCCCCC)cc3c2-c2nn(CC)cc2C(C)(C)O3)c2c(c1)OC(C)(C)c1cn(CC)nc1-2 [compound 27] | 50.1 nM | 25.1 nM | > 40 µM | 0.3 ± 0.1 µM | 79.4 nM |  |
| CCCCCCC(C)(C)c1cc(OCCCCCCCCCCCCCCCCOc2cc(C(C)(C)CCCCCC)cc3c2-c2c(cnn2CC)C(C)(C)O3)c2c(c1)OC(C)(C)c1cnn(CC)c1-2 [compound 28, bivalent chromenopyrazole 28 (R1 = N1-Et, n = 14)] |  |  | > 40 µM |  |  | > 40 µM |
| CCCCCCC(C)(C)c1cc(OCCCCCCCCCCOc2cc(C(C)(C)CCCCCC)cc3c2-c2c(cnn2CC)C(C)(C)O3)c2c(c1)OC(C)(C)c1cnn(CC)c1-2 [compound 22, bivalent chromenopyrazole 22 (R1 = N1-Et, n = 8)] | 63.1 nM | 79.4 nM | > 40 µM | 0.9 ± 0.2 µM | 20 nM |  |
